From patent publication US6353124B1, “Therapeutic compound-fatty acid conjugates” (priority 1993, dated 2002)
Read-outs that look alike come from different tables or passages of the source.

Experiments:
UVB induced oedema = UVB induced oedema (net skin fold thickness increase) in SKH-1 hairless mice, topical application; assay type: in vivo; settings: for Immediate Activity Results, highest to lowest (ranking): painted after 3 MED UVB, 4% ibuprofen equivalent (Ibu-ATP3 at 2%), FIG. 5; for effect on oedema at 2%: 2% ibuprofen, as the conjugate or as the free drug; for photoprotection against UVB induced oedema against interval of application: crude 2% (30% purity, contaminated with GTP2), 100 μl, days -5 to 0, FIG. 3
Description: The vehicle used was a variation of previously published vehicles and consisted of ethanol:DMSO at a 5:1 ratio. […] The oedema was then determined by measuring the skin fold thickness (SFT) of a folded mid-dorsal piece of skin using a hand-held micrometer. Measurements were taken at 0 hours, just prior to UVB exposure and at 24 hours post UVB exposure. A control group, painted with 60 or 100 μl of the vehicle, was used to determine the increase in skin oedema due to the inflammatory response. […] The pre UVB SFT measurement was subtracted from the 24 hour SFT measurement, to determine the Net Skin Fold Thickness increase (NSFT).

UVB induced burns = assay: Effect on UVB induced burns in mice, topical application; assay type: in vivo
Description: (§1) Method Groups of 3 female mice were exposed to 3 MED of UVB on their dorsal surface and then were immediately painted (by smoothing the topical solution over the dorsal surface) with 60 μl or 100 μl of vehicle or vehicle containing increasing concentrations of NSAID's or NSAID fatty acid conjugates. The vehicle used was a variation of previously published vehicles and consisted of ethanol:DMSO at a 5:1 ratio. The test NSAID's and their conjugates were either applied after UVB irradiation to reduce the possibility of sun-screening effects (Day 0), or 1 to 5 days prior to UVB exposure. The oedema was then determined by measuring the skin fold thickness (SFT) of a folded mid-dorsal piece of skin using a hand-held micrometer. Measurements were taken at 0 hours, just prior to UVB exposure and at 24 hours post UVB exposure. A control group, painted with 60 or 100 μl of the vehicle, was used to determine the increase in skin oedema due to the inflammatory response. […] The pre UVB SFT measurement was subtracted from the 24 hour SFT measurement, to determine the Net Skin Fold Thickness increase (NSFT).
Individual scores are presented for each mouse ie a result indicated as 5,4,3 is interperated as the first mouse having a severe burn, the second mouse a moderate to severe burn and the third mouse a moderate burn.

Skh-1 mouse = assay: Toxicity and tolerability of topically applied indomethacin in Skh-1 mice; assay type: in vivo; settings: painted on dorsal surface, range 0.1% to 2.5% tested
Description: as §1
As a preliminary study the ability of indomethacin to protect against oedema in Skh-1 mouse was determined. Indomethacin over a concentration range from 0.1% to 2.5% was applied after the mice had been irradiated with UVB; non-irradiated controls were also run. […]

sunburn erythema [1] = settings: 2.5% in propylene glycol:ethanol:dimethylacetamide (19:19:2), 3 MED of UV light, humans; cited from earlier work
sunburn erythema [2] = settings: 2.5% in propylene glycol:ethanol:dimethylacetamide (19:19:2), 3 MED of UV light, guinea-pigs; cited from earlier work

Question: With `COc1ccc2c(c1)c(CC(=O)O)c(C)n2C(=O)c1ccc(Cl)cc1` [indomethacin, 1-(4-Chlorobenzoyl)-5-methoxy-2-methyl-1H-indole-3-acetic acid] as the compound, how does the “anti-inflammatory effect at 0.1%” value (UVB induced oedema; 0.1% applied after UVB, 24 hours) read?
Answer: mild anti-inflammatory effect

Question: And the “erythema and oedema with concentration” value (UVB induced oedema; 0.1% to 2.5% applied after UVB)?
Answer: decrease in erythema and oedema with increasing concentrations

Question: What about the “protection against UVB induced oedema, applied 3 days prior to UVB” value (UVB induced oedema; 1% indomethacin, 3 days prior to exposure, FIG. 2) of the same compound?
Answer: approximately 50%

Question: And the “protection against UVB induced oedema, applied 5 days prior to UVB” value (UVB induced oedema; 1% indomethacin, 5 days prior to exposure, FIG. 2)?
Answer: not present

Question: What about the “protective effect on UVB induced oedema against interval of application” value (UVB induced oedema; 100 μl of 1% solution, days -5 to -1 before UVB and Day 0, NSFT at 24 hours, FIG. 2) of the same compound?
Answer: loses its protective effect on UVB induced oedema as the interval of application prior to exposure increases

Question: And the “concentration giving maximal protection against erythema and oedema” value (UVB induced oedema; applied after UVB, 24 hours, range 0.1% to 2.5%)?
Answer: ≥ 1%

Question: And the “effect on burn repair” value (UVB induced burns; indomethacin levels that prevent oedema)?
Answer: little or no effect on burn repair

Question: What about the “topical concentration lethal after 36 hours (gastrointestinal haemorrhage)” value (Skh-1 mouse) of the same compound?
Answer: ≥ 2%

Question: And the “protection against sunburn erythema” value (sunburn erythema [1])?
Answer: total protection

Question: And the “protection against sunburn erythema” value (sunburn erythema [2])?
Answer: total protection

Question: Which “Immediate Activity Results, highest to lowest (ranking)” value (“Immediate Activity Results, highest” for short) (UVB induced oedema) does the source give for ibuprofen-alanine-Tris [Ibu-AT] here?
Answer: 4% Ibu=4% Ibu-ATP>4% Ibu-ATP2>4% Ibu-AT=2% Ibu-ATP3

Question: For “ibuprofen-alanine-Tris-dipalmitate [Ibu-ATP2]”, which “Immediate Activity Results, highest” value (UVB induced oedema) is on record?
Answer: 4% Ibu=4% Ibu-ATP>4% Ibu-ATP2>4% Ibu-AT=2% Ibu-ATP3

Question: For “ibuprofen-alanine-Tris-monopalmitate [Ibu ATP1]”, which “effect on oedema at 2%” value (UVB induced oedema) is on record?
Answer: little effect on oedema

Question: And the “Immediate Activity Results, highest” value (UVB induced oedema)?
Answer: 4% Ibu=4% Ibu-ATP>4% Ibu-ATP2>4% Ibu-AT=2% Ibu-ATP3

Question: What about the “protective effect on UVB induced burns” value (UVB induced burns; 2%, painted after 3 MED UVB, compared with unmodified ibuprofen) of the same compound?
Answer: protective effect on UVB induced burns to a much greater extent than unmodified ibuprofen

Question: Which “Immediate Activity Results, highest” value (UVB induced oedema) does the source give for “ibuprofen-alanine-Tris-tripalmitate [Ibu-ATP3]” here?
Answer: 4% Ibu=4% Ibu-ATP>4% Ibu-ATP2>4% Ibu-AT=2% Ibu-ATP3

Question: Which “photoprotection against UVB induced oedema against interval of application” value (UVB induced oedema) does the source give for “indomethacin-glycine-Tris-dipalmitate [Indo-GTP2]” here?
Answer: most protective 5 days prior to irradiation with UVB

Question: What about the “photoprotection against UVB induced oedema against interval of application” value (UVB induced oedema; listed as indomethacin-glycine-Tris-dipalmitate) of the same compound?
Answer: most pronounced at 5 days prior to exposure with UVB

Question: And the “prolonged and immediate protective activity against UVB induced oedema” value (UVB induced oedema; high purity, 2% (indomethacin equivalent), painted 5 days prior to or immediately after UVB, compared with Indo-GTP3, Indo-EP1, Indo-GEP1, FIG. 4)?
Answer: highest levels of prolonged and immediate activity

Question: Which “effect on oedema at 2%” value (UVB induced oedema) does the source give for “α-Methyl-4-(2-methylpropyl)benzene acetic acid [Ibu cont]” here?
Answer: little effect on oedema

Question: And the “Immediate Activity Results, highest” value (UVB induced oedema)?
Answer: 4% Ibu=4% Ibu-ATP>4% Ibu-ATP2>4% Ibu-AT=2% Ibu-ATP3
